Experimental data as given in ChEMBL document CHEMBL3885861, “Open TG-GATES”.

Species on record: Rattus norvegicus
Experiment: Open TG-GATES - Regimen: Single
Type: toxicity, organism-based, Sprague-Dawley
Parameters: regimen Single, gender Male, age 6 weeks
Conditions: in vivo, po, 0 mg/kg, route gavage, dose level Control; for APTT / Bas / Eos / Fbg / Hb / Ht / Lym / MCH / MCHC / MCV / Mono / Neu / PT / Plat / RBC / Ret / WBC: tissue Blood; for KIDNEY_L / KIDNEY_R / KIDNEY_TOTAL: tissue Kidney; for LIVER: tissue Liver; for A/G / ALP / ALT / AST / BUN / CRE / Ca / Cl / DBIL / GLC / IP / K / LDH / Na / PL / RALB / TBIL / TC / TG / TP / gamma-GTP: tissue Plasma

## CN1C(=O)OC(C)(C)C1=O [TRIMETHADIONE]
3 h
  TERMINAL_BW: 205.3 g
  APTT: 17.8 s
  Bas: 0.2%
  Eos: 0.8%
  Fbg: 261 mg/dL
  Hb: 13.4 g/dL
  Ht: 40.1%
  Lym: 79.8%
  MCH: 21.8 pg
  MCHC: 33.5%
  MCV: 65.1 fL
  Mono: 3%
  Neu: 16%
  PT: 13.8 s
  Plat: 125.1 x10_4/uL
  RBC: 616.4 x10_4/ul
  Ret: 8.2%
  WBC: 86.1 x10_2/uL
  KIDNEY_L: 1 g
  KIDNEY_R: 0.9 g
  KIDNEY_TOTAL: 1.9 g
  LIVER: 9 g
  A/G: 0.9
  ALP: 1845.4 IU/L
  ALT: 43.8 IU/L
  AST: 85 IU/L
  BUN: 9.6 mg/dL
  CRE: 0.2 mg/dL
  Ca: 10.6 mg/dL
  Cl: 107.4 meq/L
  DBIL: 0.006 mg/dL
  GLC: 181.4 mg/dL
  IP: 8.9 mg/dL
  K: 4.2 meq/L
  LDH: 152 IU/L
  Na: 140.6 meq/L
  PL: 133.8 mg/dL
  RALB: 2.5 g/dL
  TBIL: 0.07 mg/dL
  TC: 72.2 mg/dL
  TG: 42.6 mg/dL
  TP: 5.3 g/dL
  gamma-GTP: 1.2 IU/L
6 h
  TERMINAL_BW: 205.6 g
  APTT: 18.9 s
  Bas: 0%
  Eos: 1%
  Fbg: 284.2 mg/dL
  Hb: 13.1 g/dL
  Ht: 39.6%
  Lym: 77.4%
  MCH: 21.4 pg
  MCHC: 33.2%
  MCV: 64.4 fL
  Mono: 2.4%
  Neu: 19%
  PT: 13.8 s
  Plat: 122.3 x10_4/uL
  RBC: 615.2 x10_4/ul
  Ret: 8.7%
  WBC: 78 x10_2/uL
  KIDNEY_L: 0.9 g
  KIDNEY_R: 0.9 g
  KIDNEY_TOTAL: 1.9 g
  LIVER: 8.6 g
  A/G: 0.9
  ALP: 1304.6 IU/L
  ALT: 34.4 IU/L
  AST: 72.2 IU/L
  BUN: 9 mg/dL
  CRE: 0.2 mg/dL
  Ca: 10.5 mg/dL
  Cl: 108.2 meq/L
  DBIL: 0.002 mg/dL
  GLC: 176.4 mg/dL
  IP: 8.9 mg/dL
  K: 4.2 meq/L
  LDH: 109.8 IU/L
  Na: 140.6 meq/L
  PL: 145.4 mg/dL
  RALB: 2.5 g/dL
  TBIL: 0.064 mg/dL
  TC: 83 mg/dL
  TG: 49.6 mg/dL
  TP: 5.4 g/dL
  gamma-GTP: 1.4 IU/L
9 h
  TERMINAL_BW: 205.5 g
  APTT: 19.5 s
  Bas: 0%
  Eos: 0.8%
  Fbg: 276.8 mg/dL
  Hb: 13.5 g/dL
  Ht: 40.8%
  Lym: 75.2%
  MCH: 20.9 pg
  MCHC: 33%
  MCV: 63.4 fL
  Mono: 2.2%
  Neu: 21.4%
  PT: 13.7 s
  Plat: 114.8 x10_4/uL
  RBC: 642.8 x10_4/ul
  Ret: 7.6%
  WBC: 82.3 x10_2/uL
  KIDNEY_L: 0.9 g
  KIDNEY_R: 0.9 g
  KIDNEY_TOTAL: 1.7 g
  LIVER: 7.9 g
  A/G: 0.9
  ALP: 1637 IU/L
  ALT: 38 IU/L
  AST: 77 IU/L
  BUN: 9.6 mg/dL
  CRE: 0.2 mg/dL
  Ca: 10.5 mg/dL
  Cl: 108 meq/L
  DBIL: 0.002 mg/dL
  GLC: 176.6 mg/dL
  IP: 9.7 mg/dL
  K: 3.9 meq/L
  LDH: 76.4 IU/L
  Na: 141.4 meq/L
  PL: 133.6 mg/dL
  RALB: 2.5 g/dL
  TBIL: 0.064 mg/dL
  TC: 72.8 mg/dL
  TG: 31.2 mg/dL
  TP: 5.4 g/dL
  gamma-GTP: 1.2 IU/L
24 h
  TERMINAL_BW: 223.7 g
  APTT: 17.1 s
  Bas: 0%
  Eos: 1%
  Fbg: 254 mg/dL
  Hb: 13.1 g/dL
  Ht: 39.5%
  Lym: 77.2%
  MCH: 21.8 pg
  MCHC: 33%
  MCV: 66.1 fL
  Mono: 3%
  Neu: 18.2%
  PT: 13.3 s
  Plat: 113.7 x10_4/uL
  RBC: 598 x10_4/ul
  Ret: 7.3%
  WBC: 99.1 x10_2/uL
  KIDNEY_L: 1 g
  KIDNEY_R: 0.9 g
  KIDNEY_TOTAL: 1.9 g
  LIVER: 10.4 g
  A/G: 0.9
  ALP: 1802.2 IU/L
  ALT: 47.2 IU/L
  AST: 74.8 IU/L
  BUN: 15 mg/dL
  CRE: 0.2 mg/dL
  Ca: 10.9 mg/dL
  Cl: 104.8 meq/L
  DBIL: 0.01 mg/dL
  GLC: 165.4 mg/dL
  IP: 7.8 mg/dL
  K: 4 meq/L
  LDH: 82 IU/L
  Na: 142.8 meq/L
  PL: 161 mg/dL
  RALB: 2.6 g/dL
  TBIL: 0.056 mg/dL
  TC: 85.6 mg/dL
  TG: 92.2 mg/dL
  TP: 5.6 g/dL
  gamma-GTP: 1 IU/L
